# Reference: paper PMC9232501, “Results of the phase I CCTG IND.231 trial of CX-5461 in patients with advanced solid tumors enriched for DNA-repair deficiencies” (Nature Communications, 2022)
# Where “and” joins values, the source holds several entries; their conditions need not be identical. Equal entries are not always repeated.
# Assay: Plasma pharmacokinetics of CX-5461 (HPLC-MS/MS, non-compartmental)
# Assay type: in vivo, human
# Set-up: Day 1 CX-5461 plasma concentration: unit not given here
# Details: for Day 1 Cmax / Day 8 or 15 Cmax / Day 1 AUC / Day 8 or 15 AUC: one patient per datapoint; for Day 1 Cmax / Day 8 or 15 Cmax: in ng/mL; for Day 1 AUC / Day 8 or 15 AUC: in ng·h/mL (unit assumed)
# Procedure: PK was assessed on all patients in the escalation phase. Venous blood samples were collected on treatment days 1, 8, and 15 (where applicable), and plasma CX-5461 was analyzed with HPLC-MS/MS (schedule details in Supplementary Table 3). PK parameters were calculated with non-compartmental methods. […] The protocol was amended to allow submission of a ctDNA sample and in a further amendment, a mandatory skin biopsy (pre-treatment and cycle 1 day 15) to study phototoxic effects. Fresh tumor biopsies were optional.
# Supplementary Table 3. Schedule for collection of CX5461 pharmacokinetics
# During infusion at 30 minutes
# Immediately post infusion then:
# C1D1 30 minutes post infusion
# C1D2 24 hours post infusion
# C1D3 48 hours post infusion
# C1D4 72 hours post infusion
# Immediately post infusion then
# C1D15 30 minutes post infusion
# C1D16 24 hours post infusion
# In addition to the specific time points listed above, additional samples were to be collected from […]
compound,measurement,setting,value
Cc1cnc(CNC(=O)c2c(=O)c3ccc(N4CCCN(C)CC4)nc3n3c2sc2ccccc23)cn1 [CX-5461],Day 1 CX-5461 plasma concentration,"50 mg/m2, Time 0, individual patients",623
same,Day 1 CX-5461 plasma concentration,"50 mg/m2, Time 24, individual patients",40.3 and 34
same,Day 1 CX-5461 plasma concentration,"50 mg/m2, Time 48, individual patients",40 and 22.9
same,Day 1 CX-5461 plasma concentration,"50 mg/m2, Time 72, individual patients",16.6 and 12.9
same,Day 1 CX-5461 plasma concentration,"100 mg/m2, Time 24, individual patients",53.2 and 76.4 and 34.5 and 70.1
same,Day 1 CX-5461 plasma concentration,"100 mg/m2, Time 48, individual patients",49 and 52 and 48
same,Day 1 CX-5461 plasma concentration,"100 mg/m2, Time 72, individual patients",28 and 33.5 and 33.8
same,Day 1 CX-5461 plasma concentration,"150 mg/m2, Time 0, individual patients",415 and 821
same,Day 1 CX-5461 plasma concentration,"150 mg/m2, Time 24, individual patients",176 and 102 and 165 and 350
same,Day 1 CX-5461 plasma concentration,"150 mg/m2, Time 48, individual patients",135 and 49 and 101 and 265
same,Day 1 CX-5461 plasma concentration,"150 mg/m2, Time 72, individual patients",90.2 and 31.2 and 92.6 and 180
same,Day 1 CX-5461 plasma concentration,"200 mg/m2, Time 0, individual patients",218 and 3210 and 1850 and 745
same,Day 1 CX-5461 plasma concentration,"200 mg/m2, Time 24, individual patients",102 and 78.2 and 124
same,Day 1 CX-5461 plasma concentration,"200 mg/m2, Time 48, individual patients",55 and 145 and 69.8 and 79.1
same,Day 1 CX-5461 plasma concentration,"200 mg/m2, Time 72, individual patients",52.5 and 43.9 and 51.7
same,Day 1 CX-5461 plasma concentration,"250 mg/m2, Time 24, individual patients",125 and 233
same,Day 1 CX-5461 plasma concentration,"250 mg/m2, Time 48, individual patients",101 and 169
same,Day 1 CX-5461 plasma concentration,"250 mg/m2, Time 72, individual patients",68 and 111
same,Day 1 CX-5461 plasma concentration,"325 mg/m2, Time 24, individual patients",160 and 193
same,Day 1 CX-5461 plasma concentration,"325 mg/m2, Time 48, individual patients",132 and 97
same,Day 1 CX-5461 plasma concentration,"325 mg/m2, Time 72, individual patients",121 and 69.4
same,Day 1 CX-5461 plasma concentration,"475 mg/m2, Time 24, individual patients",222 and 204
same,Day 1 CX-5461 plasma concentration,"475 mg/m2, Time 48, individual patients",199 and 146
same,Day 1 CX-5461 plasma concentration,"475 mg/m2, Time 72, individual patients",203 and 132
same,Day 1 CX-5461 plasma concentration,"650 mg/m2, Time 24, individual patients",255 and 361 and 196 and 161 and 173 and 233
same,Day 1 CX-5461 plasma concentration,"650 mg/m2, Time 48, individual patients",234 and 439 and 165 and 107 and 154
same,Day 1 CX-5461 plasma concentration,"650 mg/m2, Time 72, individual patients",322 and 261 and 170 and 87.5 and 137 and 154
same,Day 1 CX-5461 plasma concentration,"B: 325 mg/m2, Time 24, individual patients",254 and 120 and 133 and 175
same,Day 1 CX-5461 plasma concentration,"B: 325 mg/m2, Time 48, individual patients",156 and 435 and 136
same,Day 1 CX-5461 plasma concentration,"B: 325 mg/m2, Time 72, individual patients",93.9 and 199 and 103
same,Day 1 CX-5461 plasma concentration,"B: 475 mg/m2, Time 24, individual patients",401 and 324 and 275 and 184
same,Day 1 CX-5461 plasma concentration,"B: 475 mg/m2, Time 48, individual patients",288 and 213 and 252
same,Day 1 CX-5461 plasma concentration,"B: 475 mg/m2, Time 72, individual patients",187 and 199 and 113
same,Day 1 Cmax,Dose level 50 (mg/m2),623 and 1070 and 830 and 388
same,Day 8 or 15 Cmax,Dose level 50 (mg/m2),616 and 1040 and 271
same,Day 1 AUC,Dose level 50 (mg/m2),4080 and 3310
same,Day 8 or 15 AUC,Dose level 50 (mg/m2),6520 and 1970 and 4580
same,Day 1 Cmax,Dose level 100 (mg/m2),1580 and 662 and 799 and 1330
same,Day 8 or 15 Cmax,Dose level 100 (mg/m2),1030 and 243
same,Day 1 AUC,Dose level 100 (mg/m2),4870 and 3830 and 5290
same,Day 8 or 15 AUC,Dose level 100 (mg/m2),7780 and 8830 and 2350
same,Day 1 Cmax,Dose level 150 (mg/m2),2370 and 1080 and 1010
same,Day 8 or 15 Cmax,Dose level 150 (mg/m2),1970 and 1090 and 697
same,Day 1 AUC,Dose level 150 (mg/m2),12000 and 19500 and 11500 and 7650
same,Day 8 or 15 AUC,Dose level 150 (mg/m2),18700 and 23900 and 12600
same,Day 1 Cmax,Dose level 200 (mg/m2),265 and 3210 and 805
same,Day 8 or 15 Cmax,Dose level 200 (mg/m2),1560 and 170 and 2180 and 795
same,Day 1 AUC,Dose level 200 (mg/m2),5690 and 22300 and 12900 and 8410
same,Day 8 or 15 AUC,Dose level 200 (mg/m2),9650 and 2530 and 25500 and 14100
same,Day 1 Cmax,Dose level 250 (mg/m2),867 and 2350 and 1010
same,Day 8 or 15 Cmax,Dose level 250 (mg/m2),1290 and 368 and 654
same,Day 1 AUC,Dose level 250 (mg/m2),16300 and 16100
same,Day 8 or 15 AUC,Dose level 250 (mg/m2),21800 and 18700
same,Day 1 Cmax,Dose level 325 (mg/m2),938 and 960
same,Day 8 or 15 Cmax,Dose level 325 (mg/m2),482 and 1190
same,Day 1 AUC,Dose level 325 (mg/m2),12800 and 11200
same,Day 8 or 15 AUC,Dose level 325 (mg/m2),15200
same,Day 1 Cmax,Dose level 475 (mg/m2),1460 and 2510
same,Day 8 or 15 Cmax,Dose level 475 (mg/m2),1500 and 1940
same,Day 1 AUC,Dose level 475 (mg/m2),17900 and 17100
same,Day 8 or 15 AUC,Dose level 475 (mg/m2),7410 and 31300 and 32900
same,Day 1 Cmax,Dose level 650 (mg/m2),4290 and 1840 and 2280 and 3810 and 3180
same,Day 8 or 15 Cmax,Dose level 650 (mg/m2),6050 and 2790 and 2540 and 5480 and 3990
same,Day 1 AUC,Dose level 650 (mg/m2),29600 and 16700 and 21400
same,Day 8 or 15 AUC,Dose level 650 (mg/m2),48200 and 23200 and 59300 and 44400 and 13900
same,Day 1 Cmax,Dose level B: 325 (mg/m2),1030 and 1200 and 1520
same,Day 8 or 15 Cmax,Dose level B: 325 (mg/m2),3590 and 1510 and 1240
same,Day 1 AUC,Dose level B: 325 (mg/m2),19700 and 20400 and 21500
same,Day 8 or 15 AUC,Dose level B: 325 (mg/m2),48100 and 7080 and 11700 and 7620
same,Day 1 Cmax,Dose level B: 475 (mg/m2),2510 and 2620 and 1660 and 982 and 953
same,Day 8 or 15 Cmax,Dose level B: 475 (mg/m2),1370 and 2630 and 6800 and 1020
same,Day 1 AUC,Dose level B: 475 (mg/m2),43600 and 26400 and 23500 and 32100
same,Day 8 or 15 AUC,Dose level B: 475 (mg/m2),18300 and 14200 and 52600 and 11900 and 7800
same,concentration at 0.5 h,"human, plasma, intravenous, 50 mg/m2, 50 mg/m2, Time 0.5, individual patients, read-out: Day 1 CX-5461 plasma concentration",155 ng/mL
same,concentration at 1 h,"human, plasma, intravenous, 50 mg/m2, 50 mg/m2, Time 1, individual patients, read-out: Day 1 CX-5461 plasma concentration",104 ng/mL
same,concentration at 2 h,"human, plasma, intravenous, 50 mg/m2, 50 mg/m2, Time 2, individual patients, read-out: Day 1 CX-5461 plasma concentration",96.5 ng/mL
same,concentration at 4 h,"human, plasma, intravenous, 50 mg/m2, 50 mg/m2, Time 4, individual patients, read-out: Day 1 CX-5461 plasma concentration",74.9 ng/mL
same,concentration at 6 h,"human, plasma, intravenous, 50 mg/m2, 50 mg/m2, Time 6, individual patients, read-out: Day 1 CX-5461 plasma concentration",61.6 ng/mL
same,concentration at 24 h,"human, plasma, intravenous, 50 mg/m2, 50 mg/m2, Time 24, individual patients, read-out: Day 1 CX-5461 plasma concentration",40 ng/mL
